{"source": "patent US20150181873A1", "about": "“HERBICIDE-RESISTANT SUNFLOWER PLANTS, POLYNUCLEOTIDES ENCODING HERBICIDE=RESISTANT ACETO HYDROXY ACID SYNTHASE LARGE SUBUNIT PROTEINS, AND METHODS OF USE” (NIDERA S.A., priority 2013, published 2015)", "key": {"[1]": {"tested_on": "Sunflower line S4897", "experiment": "Greenhouse spray injury rating, line S4897", "format": "in vivo, Helianthus annuus", "description": "(§1) Sunflower lines S4897, Clearfield® sunflower varieties A, B, C and a conventional non-Clearfield variety were sprayed with three rates of imazamox (Raptor™), 100, 200 and 300 gm ai/ha plus 0.5% Sun It II and two rates of imazapyr (Arsenal™) 160 and 360 gm ai/ha plus 0.5% Sun It II when the plants were at the two to three leaf stage. Ratings were taken at 14 days after application (DAT) for injury. Injury was rated on a scale from 0 to 9 where 0=no injury to 9=dead plant. Twelve plants were sprayed per herbicide/rate treatment. Statistical analysis was conducted with STATGRAPHICS Plus 5.0 by using ANOVA and LSD procedures.\n(§2) After plants were sprayed, it was realized that a height difference between S4897 and other sunflower varieties would have impacted the actual herbicide dose that was delivered. The spray boom height had been calibrated against S4897 and since the other varieties were taller and closer to the boom they would have received a greater dose of herbicide. Rates were recalibrated for the other varieties to determine the approximate dose they would have received. Assessments were made as presented in Table 2 since it was not possible to make a direct rate comparison due to the effect of the height. For example injury scores were compare for S4897 treated imazamox rate 100 gm ai/ha to the other varieties treated at 75 gm ai/ha. The treatment dose of 300 gm ai/ha for line S4897 was equivalent to the treatment of 200 gm ai/ha for the other varieties, which […]."}, "[2]": {"tested_on": "Clearfield sunflower variety A", "experiment": "Greenhouse spray injury rating, Clearfield variety A", "format": "in vivo, Helianthus annuus", "description": "as §1, §2"}, "[3]": {"tested_on": "Clearfield sunflower variety B", "experiment": "Greenhouse spray injury rating, Clearfield variety B", "format": "in vivo, Helianthus annuus", "conditions": "scale 0-9", "description": "as §1, §2"}, "[4]": {"tested_on": "Clearfield sunflower variety C", "experiment": "Greenhouse spray injury rating, Clearfield variety C", "format": "in vivo, Helianthus annuus", "conditions": "scale 0-9", "description": "as §1, §2"}, "[5]": {"tested_on": "Conventional non-Clearfield sunflower variety", "experiment": "Greenhouse spray injury rating, conventional variety", "format": "in vivo, Helianthus annuus", "conditions": "scale 0-9", "description": "as §1, §2"}, "[6]": {"tested_on": "AHAS of S4897 sunflower (Ala107-to-Thr AHASL1)", "experiment": "AHAS activity analysis of young leaves", "format": "biochemical, Helianthus annuus", "conditions": "S4897 vs Clearfield and conventional non-Clearfield variety; higher concentration of imazamox (FIG. 7)", "procedure": "FIG. 7 is graphical illustration of a comparison of the inhibition of AHAS by Raptor for a non-Clearfield variety, a Clearfield variety and S4897 sunflower plants as described in Example 5.\nFIG. 8 is graphical illustration of a comparison of the inhibition of AHAS by Glean for a non-Clearfield variety, a Clearfield variety and S4897 sunflower plants as described in Example 5.\nAHAS activity analysis was also conducted by selecting actively growing young leaves from plants that were not sprayed with herbicide at approximately four weeks after planting."}, "[7]": {"tested_on": "wild-type sunflower plants", "experiment": "Greenhouse imazamox spray test (FIG. 3/4), wild-type", "format": "in vivo, Helianthus annuus", "conditions": "imazamox 100 or 200 g ai/ha", "procedure": "(§3) The S4897 and IMISUN-1 sunflower plants were spray-treated with imazamox at rate of 200 g ai/ha. […] The photograph was taken a few days after the plants were spray treated.\n(§4) FIG. 4 is graphical illustration of herbicide injury in a greenhouse test following the spray treatment of IMISUN-1, wild-type, and S4897 sunflower plants with imazamox at either 100 (light columns) or 200 g ai/ha (dark columns). […] Herbicide injury was evaluated 17 days after the imazamox application."}, "[8]": {"tested_on": "S4897 sunflower plants", "experiment": "Greenhouse imazamox spray test (FIG. 3/4), S4897", "format": "in vivo, Helianthus annuus", "conditions": "S4897 vs IMISUN-1 and wild-type; imazamox 100 and 200 g ai/ha; 17 days after application", "procedure": "as §3, §4"}, "[9]": {"tested_on": "S4897 plants", "experiment": "Field trial of resistance to imazapic", "format": "in vivo, Helianthus annuus", "conditions": "S4897 vs IMISUN-1 (Ala190-to-Val); field trials in Argentina; no data presented", "procedure": "In field trials in Argentina, S4897 plants were tested for resistance to imazapic. […] This trial had single row plots and was treated on a windy day, so the actual herbicide dose reaching the plants was likely less than was applied."}, "[10]": {"conditions": "imazamox 300 gm ai/ha, scale 0-9"}}, "data": [{"compound": "COCc1cnc(C2=NC(C)(C(C)C)C(=O)N2)c(C(=O)O)c1", "note": "(stereo not shown) [Imazamox, imazamox]", "values": [{"measurement": "Injury at 14 DAT", "setting": "[1]; imazamox 100 gm ai/ha (100/75), scale 0=no injury to 9=dead plant", "result": 0.5, "unit": "a"}, {"measurement": "Injury at 14 DAT", "setting": "[1]; imazamox 200 gm ai/ha (column 200/150), scale 0-9", "result": 0.8, "unit": "a"}, {"measurement": "Injury at 14 DAT", "setting": "[1]; imazamox 200 gm ai/ha (column 200/150), scale 0-9, listed as imazamox", "result": "little to no injury"}, {"measurement": "Injury at 14 DAT", "setting": "[1]; [10]", "result": 0.8, "unit": "a"}, {"measurement": "Injury at 14 DAT", "setting": "[1]; imazamox 300 gm ai/ha, scale 0-9, listed as imazamox", "result": "very little injury"}, {"measurement": "Injury at 14 DAT", "setting": "[2]; imazamox 75 gm ai/ha (100/75), scale 0-9", "result": 4.3, "unit": "c"}, {"measurement": "Injury at 14 DAT", "setting": "[2]; imazamox 150 gm ai/ha (column 200/150), scale 0-9", "result": 4.6, "unit": "c"}, {"measurement": "Injury at 14 DAT", "setting": "[2]; imazamox 150 gm ai/ha (column 200/150), scale 0-9, listed as imazamox", "result": "significantly in juried and had stopped growing"}, {"measurement": "Injury at 14 DAT", "setting": "[2]; [10]", "result": 6.5, "unit": "days"}, {"measurement": "Injury at 14 DAT", "setting": "[3]; imazamox 75 gm ai/ha (100/75)", "result": 1.9, "unit": "b"}, {"measurement": "Injury at 14 DAT", "setting": "[3]; imazamox 150 gm ai/ha", "result": 4.8, "unit": "c"}, {"measurement": "Injury at 14 DAT", "setting": "[3]; imazamox 300 gm ai/ha", "result": 5.3, "unit": "c"}, {"measurement": "Injury at 14 DAT", "setting": "[4]; imazamox 75 gm ai/ha (100/75)", "result": 1.8, "unit": "b"}, {"measurement": "Injury at 14 DAT", "setting": "[4]; imazamox 150 gm ai/ha", "result": 2.9, "unit": "b"}, {"measurement": "Injury at 14 DAT", "setting": "[4]; imazamox 300 gm ai/ha", "result": 4.6, "unit": "b"}, {"measurement": "Injury at 14 DAT", "setting": "[5]; imazamox 75 gm ai/ha (100/75)", "result": 7.2, "unit": "days"}, {"measurement": "Injury at 14 DAT", "setting": "[5]; imazamox 150 gm ai/ha", "result": 8.2, "unit": "days"}, {"measurement": "Injury at 14 DAT", "setting": "[5]; imazamox 300 gm ai/ha", "result": 8.7, "unit": "e"}, {"measurement": "inhibition of AHAS activity", "setting": "[6]", "result": "less inhibition"}, {"measurement": "survival following spray treatment", "setting": "[7]", "result": "did not survive"}, {"measurement": "herbicide injury / resistance or tolerance", "setting": "[8]", "result": "significantly greater resistance or tolerance"}]}, {"compound": "Cc1cnc(C2=NC(=O)C(C)(C(C)C)N2)c(C(=O)O)c1", "note": "(stereo not shown) [imazapic]", "values": [{"measurement": "resistance to imazapic", "setting": "[9]", "result": "clearly superior"}]}]}
